{"source": "patent US20190300885A1", "about": "“A NOVEL ROLE FOR TERMINAL RNA URIDYLATION AND RNA TURNOVER IN ONCOGENESIS” (Children's Medical Center Corporation, priority 2016, published 2019)", "key": {"HCT116 cells [1]": {"tested_on": "HCT116 cells", "experiment": "Growth curves of wild-type vs ZCCHC6 knockout HCT116 cells under increasing drug concentrations", "type": "cell-based, human", "conditions": "HCT116, CRISPR/Cas9 ZCCHC6 knockout (KO) vs GFP-sgRNA control (WT)", "text": "FIGS. 5A-5B. TUTase loss sensitizes cancer cells to disruption of RNA metabolism. […] Error bars indicate SEM (n=3); *P<0.05, **P<0.01.\nGiven the observed phenotypes, whether there are conditions that specifically sensitize cancer cells to TUTase loss was examined. In particular, since TUTases have been associated with RNA turnover, it was surmised that they may play an especially important role in the context of perturbed RNA metabolism. To address this hypothesis, small molecule agents that are known to cause DNA/RNA damage and thus impair RNA quality (doxorubicin, cisplatin, etoposide), as well as ones that inhibit nucleotide synthesis and thereby limit the pool of available nucleotides in the cell (5-fluorouracil and hydroxyurea) were selected, and wild-type and ZCCHC6 knockout HCT116 cells were treated with increasing concentrations of each agent (FIG. 5A). […] 5-FU has been specifically shown to target the RNA exosome complex, which may explain its differential activity from hydroxyurea in the experiments."}, "HCT116 cells [2]": {"tested_on": "HCT116 cells", "experiment": "Growth/viability of wild-type vs TUTase knockout HCT116 cells under increasing bortezomib concentrations", "type": "cell-based, human", "conditions": "HCT116, ZCCHC6 knockout vs WT", "text": "FIG. 16. TUTase loss has a downstream impact on protein turnover. Top, the relative rates of global mRNA translation as measured by the OP-Puromycin fluorescent assay are shown. siNC=negative control siRNA; siZ6=siZCCHC6. Error bars indicate SEM (n=3); *P<0.05. Bottom, growth curves of HCT116 cells after CRISPR/Cas9-mediated knockout using a ZCCHC6-targeting sgRNA (KO) or a GFP-targeting control sgRNA (WT) under treatment with different concentrations of bortezomib are shown.\nGiven that TUTases affect mRNA turnover, it was also surmised that they may have a downstream effect on protein turnover. To address this hypothesis, the global rate of translation in TUTase knockdown versus control HCT116 cells was measured using the OP-Puromycin method. […] In addition, we treated wild-type and TUTase knockout HCT116 cells with increasing concentrations of bortezomib, an inhibitor of the proteasome and thus protein decay (FIG. 16)."}}, "note": "Entries after “also recorded” stand apart in the source; their conditions may differ."}
{"smiles": "O=c1[nH]cc(F)c(=O)[nH]1", "note": "[5-fluorouracil]", "values": [{"measurement": "differential dose-dependent growth response of ZCCHC6 knockout vs wild-type cells", "setting": "HCT116 cells [1]", "value": "reproducibly stronger effect on the knockout cells; also recorded: significantly stronger inhibitory effect on cells depleted of TUTase"}]}
{"smiles": "CC(C)C[C@H](NC(=O)[C@H](Cc1ccccc1)NC(=O)c1cnccn1)B(O)O", "note": "[bortezomib]", "values": [{"measurement": "effect on cell viability in TUTase knockout vs wild-type cells", "setting": "HCT116 cells [2]", "value": "stronger in the TUTase knockout cells"}]}
{"smiles": "N.N.[Cl][Pt][Cl]", "note": "[cisplatin]", "values": [{"measurement": "differential dose-dependent growth response of ZCCHC6 knockout vs wild-type cells", "setting": "HCT116 cells [1]", "value": "only 5-fluorouracil (5-FU) yielded a differential dose-dependent response"}]}
{"smiles": "COc1cccc2c1C(=O)c1c(O)c3c(c(O)c1C2=O)C[C@@](O)(C(=O)CO)C[C@@H]3O[C@H]1C[C@H](N)[C@H](O)[C@H](C)O1", "note": "[doxorubicin]", "values": [{"measurement": "differential dose-dependent growth response of ZCCHC6 knockout vs wild-type cells", "setting": "HCT116 cells [1]", "value": "only 5-fluorouracil (5-FU) yielded a differential dose-dependent response"}]}
{"smiles": "COc1cc([C@@H]2c3cc4c(cc3[C@@H](O[C@@H]3O[C@@H]5CO[C@@H](C)O[C@H]5[C@H](O)[C@H]3O)[C@H]3COC(=O)[C@H]23)OCO4)cc(OC)c1O", "note": "[etoposide]", "values": [{"measurement": "differential dose-dependent growth response of ZCCHC6 knockout vs wild-type cells", "setting": "HCT116 cells [1]", "value": "only 5-fluorouracil (5-FU) yielded a differential dose-dependent response"}]}
